Test results: patent US8871681B2, “Herbicidal compositions comprising 4-amino-3-chloro-5-fluoro-6-(4-chloro-2-fluoro-3-methoxyphenyl) pyridine-2-carboxylic acid or a derivative thereof and certain sulfonylureas” (Dow AgroSciences LLC, priority 2012, dated 2014)

Key:
[1] = test system: VERPE (Veronica persica, bird's-eye speedwell); assay: Post-emergence foliar-applied weed control in cereal crops, greenhouse (Example III); type: in vivo, Veronica persica Poir.; conditions: Table 51, after 20-22 days, 10 gai/ha alone
Procedure: (§1) Seeds of the desired test plant species were planted in Sun Gro MetroMix® 306 planting mixture, which typically has a pH of 6.0 to 6.8 and an organic matter content of about 30 percent, in plastic pots with a surface area of 103.2 square centimeters (cm^2). When required to ensure good germination and healthy plants, a fungicide treatment and/or other chemical or physical treatment was applied. The plants were grown for 7-36 days in a greenhouse with an approximate 14 hour photoperiod which was maintained at about 18° C. during the day and 17° C. during the night. Nutrients and water were added on a regular basis and supplemental lighting was provided with overhead metal halide 1000-Watt lamps as necessary. The plants were employed for testing when they reached the second or third true leaf stage.
(§2) Treatments consisted of the benzyl ester of 4-amino-3-chloro-5-fluoro-6-(4-chloro-2-fluoro-3-methoxy-phenyl)pyridine-2-carboxylic acid (Compound A), formulated as an SC (suspension concentrate), and a second cereal herbicide alone and in combination.
(§3) Measured aliquot of benzyl ester of 4-amino-3-chloro-5-fluoro-6-(4-chloro-2-fluoro-3-methoxy-phenyl)pyridine-2-carboxylic acid (Compound A) was placed in 25 milliliter (mL) glass vials and diluted in a volume of 1.25% (v/v) Agri-dex crop oil concentrated to obtain stock solutions. Compound requirements are based upon a 12 mL application volume at a rate of 187 liters per hectare (L/ha). Spray solutions of the second cereal herbicide and experimental compound mixtures were prepared by adding the stock solutions to the appropriate amount of dilution solution to form 12 mL spray solution with active ingredients in two- and three-way combinations. Formulated compounds were applied to the plant material with an overhead Mandel track sprayer equipped with an 8002E nozzle calibrated to deliver 187 L/ha over an application area of 0.503 square meters (m^2) at a spray height of 18 inches (46 cm) above average plant canopy. Control plants were sprayed in the same manner with the solvent blank.
(§4) The treated plants and control plants were placed in a greenhouse as described above and watered by sub-irrigation to prevent wash-off of the test compounds. After 20-22 days, the condition of the test plants as compared with that of the control plants was determined visually and scored on a scale of 0 to 100 percent where 0 corresponds to no injury and 100 corresponds to complete kill.
(§5) Colby's equation was used to determine the herbicidal effects expected from the mixtures (Colby, S. R. 1967. Calculation of the synergistic and antagonistic response of herbicide combinations. Weeds 15:20-22.).
(§6) The following equation was used to calculate the expected activity of mixtures containing two active ingredients, A and B: Expected=A+B−(A×B/100)

[2] = test system: LAMPU (Lamium purpureum, purple deadnettle); assay: as above; type: in vivo, Lamium purpureum (L.); conditions: Table 51, after 20-22 days, 10 gai/ha alone
Procedure: as §1, §2, §3, §4, §5, §6

[3] = test system: GALAP (Galium aparine, cleavers); assay: as above; type: in vivo, Galium aparine (L.); conditions: Table 51, after 20-22 days, 10 gai/ha alone
Procedure: as §1, with “The plants were employed for testing when they reached the second or third true leaf stage.” left out
Measured aliquot of benzyl ester of 4-amino-3-chloro-5-fluoro-6-(4-chloro-2-fluoro-3-methoxy-phenyl)pyridine-2-carboxylic acid (Compound A) was placed in 25 milliliter (mL) glass vials and diluted in a volume of 1.25% (v/v) Agri-dex crop oil concentrated to obtain stock solutions. […]
as §4, with “kill. […]” for “kill.”

[4] = test system: LEFCH (Leptochloa chinensis, Chinese sprangletop); assay: Postemergence foliar-applied weed control, direct seeded rice, greenhouse (Example I); type: in vivo, Leptochloa chinensis (L.) Nees; conditions: 22 DAA
Procedure, shortened: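 Greenhouse-grown plants in loam/sandy loam–grit soil (14 h photoperiod, ~29/26 °C) were sprayed postemergence at the first to fourth true leaf stage. Compound A (acid equivalent basis) and ALS-inhibiting sulfonylureas (active ingredient basis) were applied alone and in combination in 1.25% (v/v) crop oil concentrate at 187 L/ha by track sprayer; controls received solvent blank.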

[5] = test system: SETFA (Setaria faberi, giant foxtail); assay: Pre-emergence soil-applied weed control, greenhouse (Example V); type: in vivo, Setaria faberi Herrm.; conditions: Table 59 (pre-emergence), 25 gai/ha alone
Text: Seeds or nutlets of the desired test plant species were planted in a soil matrix prepared by mixing a loam soil (32 percent silt, 23 percent clay, and 45 percent sand, with a pH of about 6.5 and an organic matter content of about 1.9 percent) and calcareous grit in an 80 to 20 ratio. The soil matrix was contained in plastic pots with a volume of 1 quart and a surface area of 83.6 square centimeters (cm^2).
Treatments consisted of the benzyl ester of 4-amino-3-chloro-5-fluoro-6-(4-chloro-2-fluoro-3-methoxy-phenyl)pyridine-2-carboxylic acid (compound A) formulated as an SC (suspension concentrate) and various herbicidal components alone and in combination. Forms of compound A were applied on an acid equivalent basis.
Other herbicidal components were applied on an acid equivalent or active ingredient basis and included the acetolactate synthase (ALS)-inhibiting herbicide, flazasulfuron, formulated as Katana®.
(§7) Treatment requirements were calculated based upon the rates being tested, the concentration of active ingredient or acid equivalent in the formulation, and a 12 mL application volume at a rate of 187 L/ha.
For treatments comprised of formulated compounds, measured amounts of compounds were placed individually in 25 mL glass vials and diluted in a volume of 1.25% (v/v) Agri-Dex® crop oil concentrate (COC) to obtain 12× stock solutions. […] Application solutions were prepared by adding an appropriate amount of each stock solution (e.g., 1 mL) and diluted to the appropriate final concentrations with the addition of 10 mL of an aqueous mixture of 1.25% (v/v) COC so that the final spray solutions contained 1.25% (v/v) COC. […]
The treated and control pots were placed in a greenhouse and top watered as needed. […] After approximately 4 weeks, the condition of the test plants as compared with that of the untreated plants was determined visually and scored on a scale of 0 to 100 percent where 0 corresponds to no injury or growth inhibition and 100 corresponds to complete kill. […]

[6] = test system: IPOHE (Ipomoea hederacea, ivyleaf morningglory); assay: Postemergence foliar-applied weed control, direct seeded rice, greenhouse (Example I); type: in vivo, Ipomoea hederacea Jacq.; conditions: 22 DAA
Text: Seeds or nutlets of the desired test plant species were planted in a soil matrix prepared by mixing a loam or sandy loam soil (e.g., 28.6 percent silt, 18.8 percent clay, and 52.6 percent sand, with a pH of about 5.8 and an organic matter content of about 1.8 percent) and calcareous grit in an 80 to 20 ratio. The soil matrix was contained in plastic pots with a volume of 1 quart and a surface area of 83.6 square centimeters (cm^2). When required to ensure good germination and healthy plants, a fungicide treatment and/or other chemical or physical treatment was applied. The plants were grown for 8-22 days in a greenhouse with an approximate 14 h photoperiod which was maintained at about 29° C. during the day and 26° C. during the night. Nutrients (Peters Excel® 15-5-15 5-Ca 2-Mg and iron chelate) were applied in the irrigation solution as needed and water was added on a regular basis. Supplemental lighting was provided with overhead metal halide 1000-Watt lamps as necessary. The plants were employed for testing when they reached the first through fourth true leaf stage.
Treatments consisted of the acid or esters of 4-amino-3-chloro-5-fluoro-6-(4-chloro-2-fluoro-3-methoxy-phenyl)pyridine-2-carboxylic acid (Compound A), each formulated as an SC, and various herbicidal components alone and in combination. Forms of compound A were applied on an acid equivalent basis.
Other herbicidal components were applied on an active ingredient basis and included acetolactate synthase (ALS)-inhibiting herbicides (sulfonylurea chemical class) azimsulfuron formulated as Gulliver®, bensulfuron-methyl formulated as Londax® 60DF, cyclosulfamuron (technical material), ethoxysulfuron formulated as Sunrice® 15 WDG, flazasulfuron formulated as Katana®, flucetosulfuron formulated as Sukedachi® 1KG G, foramsulfuron formulated as Option®, imazosulfuron formulated as Brazzos® WG, iodosulfuron-methyl-sodium formulated as Hussar®, metsulfuron-methyl formulated as Lorate®, nicosulfuron formulated as Accent®, orthosulfamuron formulated as Strada® WG, primisulfuron-methyl (technical material), propyrisulfuron formulated as Zeta One®, rimsulfuron formulated as Matrix® WG, sulfometuron-methyl formulated as Oust®, and trifloxysulfuron-sodium formulated as Monument® 75WG.
as §7
For treatments comprised of formulated compounds, measured amounts of compounds were placed individually in 25 mL glass vials and diluted in a volume of 1.25% (v/v) Agri-Dex® crop oil concentrated to obtain 12× stock solutions. […] Application solutions were prepared by adding an appropriate amount of each stock solution (e.g., 1 mL) and diluted to the appropriate final concentrations with the addition of 10 mL of an aqueous mixture of 1.25% (v/v) crop oil concentrate so that the final spray solutions contained 1.25+/−0.05% (v/v) Agrcrop oil concentrate.
For treatments comprised of formulated and technical compounds, weighed amounts of the technical materials were placed individually in 25 mL glass vials and dissolved in a volume of 97:3 v/v acetone/DMSO to obtain 12× stock solutions, and measured amounts of the formulated compounds were placed individually in 25 mL glass vials and diluted in a volume of 1.25% (v/v) crop oil concentrate to obtain 12× stock solutions. […] Application solutions were prepared by adding an appropriate amount of each stock solution (e.g., 1 mL) and diluted to the appropriate final concentrations with the addition of an appropriate amount of an aqueous mixture of 1.5% (v/v) crop oil concentrate so that the final spray solutions contained 1.25% (v/v) crop oil concentrate. […]

SMILES | Weed Control VERPE Obs [1] [%] | Weed Control LAMPU Obs [2] [%] | Weed Control GALAP Obs [3] [%] | Visual Weed Control Obs ([4]; 25 gai/ha) [%] | Visual Weed Control Obs ([4]; 50 gai/ha) [%] | Visual Weed Control (%) - 27 DAA SETFA Obs [5] [%] | Visual Weed Control Obs ([6]; 50 gai/ha) [%] | Visual Weed Control (%) Obs ([6]; 100 gai/ha) [%] | Visual Weed Control Obs ([6]; 100 gai/ha) [%]
COc1cc(OC)nc(NC(=O)NS(=O)(=O)N(C)S(C)(=O)=O)n1 [Amidosulfuron] | 0 | 0 | 48 |  |  |  |  |  | 
COc1cc(OC)nc(NC(=O)NS(=O)(=O)c2ncccc2C(F)(F)F)n1 [Flazasulfuron, N-[[(4,6-dimethoxy-2-pyrimidinyl)amino]carbonyl]-3-(trifluoromethyl)-2-pyridinesulfonamide, reference compound] |  |  |  | 0 | 10 | 62 | 50 | 50 | 50
